Legend:
[1] = system: strain IV2571418 - Escherichia coli pig (resistant); assay: MIC of antibiotics in the presence and absence of test compound, veterinary strains; type: cell-based; parameters: MIC for strain IV2571418, Doxycycline in the presence of test compound: unit not given beside the values; conditions: compound at the Concentration (μM) (4-50)
Procedure: (§1) For each strain and each antibiotic, the MICs were determined in the presence and in the absence of one test compound.

CHO cells = assay: Toxicity on CHO cultured cells; type: cell-based; conditions: for IC50: Cricetulus griseus, killing of 50% of the CHO cells after 24 hours of incubation
Procedure: The toxicity of each compound was determined on CHO cultured cells. Incubation of CHO cells was performed with serial dilution of compounds. The compounds are either solubilized in DMSO or in PBS. The IC50 corresponds to the concentration of compounds leading to a killing of 50% of the CHO cells after 24 hours of incubation.

[2] = system: Enterobacter aerogenes MDR Ea289; assay: MIC of antibiotics ± test compound (MIC ratio), micro-broth dilution; type: cell-based; conditions: compound at MIC/4, Set 2; for MIC ratio (*) on Ea289 Dox: doxycycline; for MIC ratio (*) on Ea289 Nal: nalidixic acid
[3] = system: Enterobacter aerogenes MDR Ea289; assay: as above; type: cell-based; conditions: for efficient concentration, times lower than the control PAβN: chloramphenicol MIC ratio of 8 on Ea289; for activity, effective concentration compared with PAβN to reach a MIC ratio of 8: chloramphenicol on Ea289; for Effective concentration (mM) for a MIC ratio of chloramphenicol ≥ 8 on Ea289 / MIC ratio (*) on Ea289 Chl: chloramphenicol; for MIC ratio (*) on Ea289 Chl / MIC ratio(*) on Ea289 Ery / MIC ratio (*) on Ea289 Nal: compound at MIC/4; for MIC ratio(*) on Ea289 Ery: erythromycin; for MIC ratio (*) on Ea289 Nal: nalidixic acid
Procedure: The process consists of treating the MDR bacteria with the compounds of the invention in the presence of antibiotics.
(§2) Susceptibilities to antibiotics and compounds were determined in microplates by broth dilution method, as previously described. Minimal Inhibitory Concentrations (MICs) were determined with an inoculum of 10^6 CFU in 200 μL of MH broth containing two-fold serial dilutions of each drug. […] All MIC determinations were repeated at least three times in independent experiments.
The MICs of chloramphenicol±test compounds (MIC/4) were determined by the micro-broth dilution method (9). All MIC determinations were repeated at least three times in independent experiments. The MIC ratio corresponds to the ratio of the MIC of an antibiotic alone to the MIC of the same antibiotic in the presence of the tested compound (at MIC/4).
The compounds listed in Table 2 were tested for their ability to decrease the chloramphenicol MIC of Ea289, an Enterobacter aerogenes MDR strain (1). Each compound was first tested at MIC/4. […] All MIC determinations were repeated at least three times in independent experiments.
(§3) For reminder, the MIC ratio corresponds to the ratio of the MIC of the assessed antibiotic alone to the MIC of the same antibiotic in the presence of the tested compound (at MIC/4).

Ea289ΔacrB (Ea294) = assay: as above; type: cell-based, Enterobacter aerogenes; conditions: compound at MIC/4, Set 1; for MIC ratio(*) on Ea289ΔacrB Chl: chloramphenicol; for MIC ratio(*) on Ea289ΔacrB Ery: erythromycin; for MIC ratio(*) on Ea289ΔacrB Nal: nalidixic acid
Procedure: (§4) The Enterobacter aerogenes Ea289 strain is a Kans derivative of the MDR clinical isolate Ea27, the acrB mutant, EaEP294, was constructed from Ea289. Multidrug-resistant Salmonella enterica serovar Typhimurium DT104 strains (BN10055) was isolated from cattle in France, the isogenic acrB derivative mutant, BN10055ΔacrB, was constructed from BN10055. Strains were maintained at −80° C. in 25% (v/v) glycerol for cryoprotection. Bacteria were routinely grown in Mueller-Hinton (MH) broth at 37° C.
as §2
(§5) […] All MIC determinations were repeated at least three times in independent experiments. The MIC ratio corresponds to the ratio of the MIC of an antibiotic alone to the MIC of the same antibiotic in the presence of the tested compound (at MIC/4).
as §3

[4] = system: strain IV2570533 - Escherichia coli cattle (resistant); assay: MIC of antibiotics in the presence and absence of test compound, veterinary strains; type: cell-based; conditions: compound at the Concentration (μM) (0.896-12.6)
Procedure: as §1

[5] = system: strain IV2570060 - Escherichia coli cattle (sensible); assay: as above; type: cell-based; conditions: compound at the Concentration (μM) (4-50)
Procedure: as §1

[6] = system: strain IV2571223 - Escherichia coli pig (sensible); assay: as above; type: cell-based; parameters: MIC for strain IV2571223, Doxycycline in the presence of test compound: unit not given beside the values; conditions: compound at the Concentration (μM) (2-50)
Procedure: as §1

[7] = system: Salmonella Thyphimurium MDR BN10055; assay: MIC of antibiotics ± test compound (MIC ratio), micro-broth dilution; type: cell-based, Salmonella enterica serovar Typhimurium; conditions: compound at MIC/4; for MIC ratio (*) on BN10055 Chl: chloramphenicol; for MIC ratio (*) on BN10055 Dox: doxycycline; for MIC ratio(*) on BN10055 Ery: erythromycin; for MIC ratio (*) on BN10055 Nal: nalidixic acid
Procedure: as §4, §2, §5, §3

BN10055ΔacrB = assay: as above; type: cell-based, Salmonella enterica serovar Typhimurium; conditions: compound at MIC/4, Set 1; for MIC ratio(*) on BN10055ΔacrB Chl: chloramphenicol; for MIC ratio(*) on BN10055ΔacrB Ery: erythromycin; for MIC ratio(*) on BN10055ΔacrB Nal: nalidixic acid
Procedure: as §4, §2, §5, §3

SMILES: CC(C)=CCCC(C)=CCNCCCNCCCCNCCCN (racemic) [Compound 10, {3-[4-(3-Amino-propylamino)-butylamino]-propyl}-(3,7-dimethyl-octa-2,6-dienyl)-amine]
- MIC for strain IV2571418, Doxycycline in the presence of test compound [1]: 2
- MIC for strain IV2571418, Tylosine in the presence of test compound [1]: 16
- IC50 (CHO cells): 2.33 mM
- IC50 on CHO cells, times higher than effective concentration (CHO cells; IC50 on CHO cells versus effective concentration on Ea289): about 300 times
- MIC ratio (*) on Ea289 Dox [2]: 16
- MIC ratio (*) on Ea289 Nal [2]: 16
- Effective concentration (mM) for a MIC ratio of chloramphenicol ≥ 8 on Ea289 [3]: 0.0078 mM
- efficient concentration, times lower than the control PAβN [3]: about 4.9 times
- activity, effective concentration compared with PAβN to reach a MIC ratio of 8 [3]: strong activity
- MIC ratio (*) on Ea289 Chl ([3]; Set 1): 16
- MIC ratio (*) on Ea289 Chl ([3]; Set 2): 8
- MIC ratio(*) on Ea289 Ery ([3]; Set 1): 4
- MIC ratio (*) on Ea289 Nal ([3]; Set 1): 16
- MIC ratio(*) on Ea289ΔacrB Chl (Ea289ΔacrB (Ea294)): 16
- MIC ratio(*) on Ea289ΔacrB Ery (Ea289ΔacrB (Ea294)): 8
- MIC ratio(*) on Ea289ΔacrB Nal (Ea289ΔacrB (Ea294)): 8
- MIC for strain IV2570533, Doxycycline in the presence of test compound [4]: 2
- MIC for strain IV2570533, Tylosine in the presence of test compound [4]: 8
- MIC for strain IV2570060, Doxycycline in the presence of test compound [5]: 0.125
- MIC for strain IV2570060, Tylosine in the presence of test compound [5]: 16
- MIC for strain IV2571223, Doxycycline in the presence of test compound [6]: 0.0625
- MIC for strain IV2571223, Tylosine in the presence of test compound [6]: 4
- MIC ratio (*) on BN10055 Chl ([7]; Set 1): 16
- MIC ratio (*) on BN10055 Chl ([7]; Set 2): 16
- MIC ratio (*) on BN10055 Dox ([7]; Set 2): 16
- MIC ratio(*) on BN10055 Ery ([7]; Set 1): 4
- MIC ratio (*) on BN10055 Nal ([7]; Set 1): 64
- MIC ratio (*) on BN10055 Nal ([7]; Set 2): 64
- MIC ratio(*) on BN10055ΔacrB Chl (BN10055ΔacrB): 2
- MIC ratio(*) on BN10055ΔacrB Ery (BN10055ΔacrB): 8
- MIC ratio(*) on BN10055ΔacrB Nal (BN10055ΔacrB): 2

SMILES: CC(C)=CCC/C(C)=C/CC/C(C)=C/CNCCCN(CCCN)CCCN [Compound 9, {3-[Bis-(3-amino-propyl)-amino]-propyl}-(3,7,11-trimethyl-dodeca-2,6,10-trienyl)-amine]
- IC50 (CHO cells): 0.132 mM
- MIC ratio (*) on Ea289 Dox [2]: 16
- MIC ratio (*) on Ea289 Nal [2]: 16
- Effective concentration (mM) for a MIC ratio of chloramphenicol ≥ 8 on Ea289 [3]: 0.0078 mM
- efficient concentration, times lower than the control PAβN [3]: about 4.9 times
- activity, effective concentration compared with PAβN to reach a MIC ratio of 8 [3]: strong activity
- MIC ratio (*) on Ea289 Chl ([3]; Set 1): 32
- MIC ratio (*) on Ea289 Chl ([3]; Set 2): 32
- MIC ratio(*) on Ea289 Ery ([3]; Set 1): 16-32
- MIC ratio (*) on Ea289 Nal ([3]; Set 1): 16
- MIC ratio(*) on Ea289ΔacrB Chl (Ea289ΔacrB (Ea294)): 4
- MIC ratio(*) on Ea289ΔacrB Ery (Ea289ΔacrB (Ea294)): 8
- MIC ratio(*) on Ea289ΔacrB Nal (Ea289ΔacrB (Ea294)): 128
- MIC ratio (*) on BN10055 Chl ([7]; Set 1): 16
- MIC ratio (*) on BN10055 Chl ([7]; Set 2): 16
- MIC ratio (*) on BN10055 Dox ([7]; Set 2): 8
- MIC ratio(*) on BN10055 Ery ([7]; Set 1): 32
- MIC ratio (*) on BN10055 Nal ([7]; Set 1): 128
- MIC ratio (*) on BN10055 Nal ([7]; Set 2): 128
- MIC ratio(*) on BN10055ΔacrB Chl (BN10055ΔacrB): 2
- MIC ratio(*) on BN10055ΔacrB Ery (BN10055ΔacrB): 8
- MIC ratio(*) on BN10055ΔacrB Nal (BN10055ΔacrB): 8

SMILES: CC(C)=CCC/C(C)=C/CNCCCN(C)CCCN [Compound 13, {3-[(3-Amino-propyl)-methyl-amino]-propyl}-((E)-3,7-dimethyl-octa-2,6-dienyl)-amine]
- MIC ratio (*) on Ea289 Dox [2]: 16
- MIC ratio (*) on Ea289 Nal [2]: 8
- MIC ratio (*) on Ea289 Chl ([3]; Set 2): 16
- MIC ratio (*) on BN10055 Chl ([7]; Set 2): 8-16
- MIC ratio (*) on BN10055 Dox ([7]; Set 2): 16
- MIC ratio (*) on BN10055 Nal ([7]; Set 2): 32

SMILES: CC(C)=CCC/C(C)=C/CC/C(C)=C/CNCCCN1CCN(CCCN)CC1 [Compound 15, {3-[4-(3-Amino-propyl)-piperazin-1-yl]-propyl}-((2E,6E)-3,7,11-trimethyl-dodeca-2,6,10-trienyl)-amine]
- MIC for strain IV2571418, Doxycycline in the presence of test compound [1]: 4
- MIC for strain IV2571418, Tylosine in the presence of test compound [1]: 32
- MIC ratio (*) on Ea289 Dox [2]: 128
- MIC ratio (*) on Ea289 Nal [2]: 32
- MIC ratio (*) on Ea289 Chl ([3]; Set 2): 8
- MIC for strain IV2570533, Doxycycline in the presence of test compound [4]: 2
- MIC for strain IV2570533, Tylosine in the presence of test compound [4]: 32
- MIC for strain IV2570060, Doxycycline in the presence of test compound [5]: 0.125
- MIC for strain IV2570060, Tylosine in the presence of test compound [5]: 32
- MIC for strain IV2571223, Doxycycline in the presence of test compound [6]: 0.0625
- MIC for strain IV2571223, Tylosine in the presence of test compound [6]: 32
- MIC ratio (*) on BN10055 Chl ([7]; Set 2): 8
- MIC ratio (*) on BN10055 Dox ([7]; Set 2): 32
- MIC ratio (*) on BN10055 Nal ([7]; Set 2): 64

SMILES: CC(C)=CCC/C(C)=C/CC/C(C)=C/CNCCCN [Compound 16]
- MIC ratio (*) on Ea289 Dox [2]: 64
- MIC ratio (*) on Ea289 Nal [2]: 16
- MIC ratio (*) on Ea289 Chl ([3]; Set 2): 8-16
- MIC ratio (*) on BN10055 Chl ([7]; Set 2): 16-32
- MIC ratio (*) on BN10055 Dox ([7]; Set 2): 32
- MIC ratio (*) on BN10055 Nal ([7]; Set 2): 128

SMILES: CC(C)=CCC/C(C)=C/CC/C(C)=C/CNCCCCN [Compound 17]
- MIC ratio (*) on Ea289 Dox [2]: 64
- MIC ratio (*) on Ea289 Nal [2]: 16
- MIC ratio (*) on Ea289 Chl ([3]; Set 2): 8-16
- MIC ratio (*) on BN10055 Chl ([7]; Set 2): 8
- MIC ratio (*) on BN10055 Dox ([7]; Set 2): 16
- MIC ratio (*) on BN10055 Nal ([7]; Set 2): 64

Source: patent US10562842B2, “Use of polyaminoisoprenyl derivatives in antibiotic or antiseptic treatment” (UNIVERSITE D'AIX-MARSEILLE, priority 2011, dated 2020)
